Results on 31 compounds are retold here after patent publication US20240101546A1, “HETEROARYL-ACETYLENES, PHARMACEUTICAL COMPOSITIONS THEREOF, AND THEIR THERAPEUTIC APPLICATIONS” (Eubulus Biotherapeutics Inc., priority 2020, published 2024).

The assay has as its system lung cancer cell line NCI-H82. Briefly: Cell proliferation assay, NCI-H82 (CELL-TITER GLO). Type of assay: cell-based. Conditions: Homo sapiens, NCI-H82, 72 h, NCI-H82 cells, 72 h incubation, cell viability by CELL-TITER GLO, top concentration 1 μM; read-out: EC50, Inhibition of NCl-H82 Cell Proliferation. Summed up: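 NCI-H82 cells, 1,000 per well in RPMI1640, were treated after overnight plating with a 3-fold dilution series from 1 μM. Viability read by CellTiter-Glo luminescence after 72 h. EC50 derived from the curves.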

With `C#Cc1nnc(NC(=O)N[C@@H](CO)c2ccc(-c3ccc(F)cc3C3CC3(F)F)cn2)s1` (stereo partly drawn) [Compound A85, 1-((1R)-1-(5-(2-(2,2-Difluorocyclopropyl)-4-fluorophenyl)pyridin-2-yl)-2-hydroxyethyl)-3-(5-ethynyl-1,3,4-thiadiazol-2-yl)urea], the EC50 was no more than 200 nM.
Consider `C#Cc1nnc(NC(=O)N(C)[C@@H](CO)c2ccc(-c3ccc(F)cc3C3CC3(F)F)cn2)s1` (stereo partly drawn) [Compound A86, 1-((1R)-1-(5-(2-(2,2-Difluorocyclopropyl)-4-fluorophenyl)pyridin-2-yl)-2-hydroxyethyl)-3-(5-ethynyl-1,3,4-thiadiazol-2-yl)-1-methylurea], for which the EC50 is no more than 200 nM.
As to `C#Cc1nnc(NC(=O)N[C@@H](COC(N)=O)c2ccc(-c3ccc(F)cc3C3CC3(F)F)cn2)s1` (stereo partly drawn) [Compound A87, (2R)-2-(5-(2-(2,2-Difluorocyclopropyl)-4-fluorophenyl)pyridin-2-yl)-2-(3-(5-ethynyl-1,3,4-thiadiazol-2-yl)ureido)ethyl carbamate], the EC50 is no more than 200 nM.
The value for `C#Cc1nc(NC(=O)N[C@@H](CO)c2ccc(-c3cccc(N4CCCC4)n3)cc2)cs1` [Compound A88, (R)-1-(2-Ethynylthiazol-4-yl)-3-(2-hydroxy-1-(4-(6-(pyrrolidin-1-yl)pyridin-2-yl)phenyl)ethyl)urea] was no more than 200 nM; that for `C#Cc1nc(NC(=O)N[C@@H](CO)c2ccc(-c3cccc(N4CCCC4)n3)cn2)cs1` [Compound A89, (R)-1-(2-Ethynylthiazol-4-yl)-3-(2-hydroxy-1-(6-(pyrrolidin-1-yl)-[2,3′-bipyridin]-6′-yl)ethyl)urea] was no more than 200 nM; that for `C#Cc1ncc(NC(=O)N[C@@H](COC(N)=O)c2ccc(-c3cccc(N4CCCC4)n3)cn2)s1` [Compound A90, (R)-2-(3-(2-Ethynylthiazol-5-yl)ureido)-2-(6-(pyrrolidin-1-yl)-[2,3′-bipyridin]-6′-yl)ethyl carbamate] was no more than 200 nM.
As to `C#Cc1nc(NC(=O)N(C)[C@@H](CO)c2ccc(-c3cccc(N4CCCC4)n3)cn2)cs1` [Compound A91, (R)-3-(2-Ethynylthiazol-4-yl)-1-(2-hydroxy-1-(6-(pyrrolidin-1-yl)-[2,3′-bipyridin]-6′-yl)ethyl)-1-methylurea], the EC50 was no more than 200 nM.
In the case of `C#Cc1nc(NC(=O)N(C)[C@@H](COC(N)=O)c2ccc(-c3cccc(N4CCCC4)n3)cn2)cs1` [Compound A92, (R)-2-(3-(2-Ethynylthiazol-4-yl)-1-methylureido)-2-(6-(pyrrolidin-1-yl)-[2,3′-bipyridin]-6′-yl)ethyl carbamate], the EC50 was no more than 200 nM.
As to `C#Cc1nnc(NC(=O)N[C@@H](CO)c2ccc(-c3cccc(N4CCCC4)n3)cc2)s1` [Compound A93, (R)-1-(5-Ethynyl-1,3,4-thiadiazol-2-yl)-3-(2-hydroxy-1-(4-(6-(pyrrolidin-1-yl)-pyridin-2-yl)phenyl)ethyl)urea], the EC50 is no more than 200 nM.
As to `C#Cc1nnc(NC(=O)N[C@@H](COC(N)=O)c2ccc(-c3cccc(N4CCCC4)n3)cc2)s1` [Compound A94, (R)-2-(3-(5-Ethynyl-1,3,4-thiadiazol-2-yl)ureido)-2-(4-(6-(pyrrolidin-1-yl)-pyridin-2-yl)phenyl)ethyl carbamate], the EC50 is no more than 200 nM.
As for `C#Cc1nnc(NC(=O)N(C)[C@@H](COC(N)=O)c2ccc(-c3cccc(N4CCCC4)n3)cc2)s1` [Compound A95, (R)-2-(3-(5-Ethynyl-1,3,4-thiadiazol-2-yl)-1-methylureido)-2-(4-(6-(pyrrolidin-1-yl)pyridin-2-yl)phenyl)ethyl carbamate], the EC50 was no more than 200 nM.
With `C#Cc1nnc(NC(=O)N[C@@H](CO)c2ccc(-c3cccc(N4CCCC4)n3)cn2)s1` [Compound A96, (R)-1-(5-Ethynyl-1,3,4-thiadiazol-2-yl)-3-(2-hydroxy-1-(6-(pyrrolidin-1-yl)-[2,3′-bipyridin]-6′-yl)ethyl)urea], the EC50 is no more than 200 nM.
The value for `C#Cc1nnc(NC(=O)N[C@@H](COC(N)=O)c2ccc(-c3cccc(N4CCCC4)n3)cn2)s1` [Compound A97, (R)-2-(3-(5-Ethynyl-1,3,4-thiadiazol-2-yl)ureido)-2-(6-(pyrrolidin-1-yl)-[2,3′-bipyridin]-6′-yl)ethyl carbamate] was no more than 200 nM; that for `C#Cc1nc(NC(=O)N[C@@H](CO)c2ccc(-c3cccnc3N(C)C)cc2)cs1` [Compound A98, (R)-1-(1-(4-(2-(Dimethylamino)pyridin-3-yl)phenyl)-2-hydroxyethyl)-3-(2-ethynylthiazol-4-yl)urea] was no more than 200 nM.
The value for `C#Cc1nc(NC(=O)N[C@@H](COC(N)=O)c2ccc(-c3cccnc3N(C)C)cc2)cs1` [Compound A99, (R)-2-(4-(2-(Dimethylamino)pyridin-3-yl)phenyl)-2-(3-(2-ethynylthiazol-4-yl)-ureido)ethyl carbamate] was no more than 200 nM.
With `C#Cc1nc(NC(=O)N[C@@H](CO)c2ccc(-c3cccnc3N(C)C)c(Cl)c2)cs1` [Compound A100, (R)-1-(1-(3-Chloro-4-(2-(dimethylamino)pyridin-3-yl)phenyl)-2-hydroxyethyl)-3-(2-ethynylthiazol-4-yl)urea] the figure was no more than 200 nM.
For the compound `C#Cc1nc(NC(=O)N[C@@H](COC(N)=O)c2ccc(-c3cccnc3N(C)C)c(Cl)c2)cs1` [Compound A101, (R)-2-(3-Chloro-4-(2-(dimethylamino)pyridin-3-yl)phenyl)-2-(3-(2-ethynyl-thiazol-4-yl)ureido)ethyl carbamate], the EC50 is no more than 200 nM.
For the compound `C#Cc1nc(NC(=O)N[C@@H](CO)c2ccc(-c3cccnc3N3CC(F)(F)C3)cc2)cs1` [Compound A102, (R)-1-(1-(4-(2-(3,3-Difluoroazetidin-1-yl)pyridin-3-yl)phenyl)-2-hydroxyethyl)-3-(2-ethynylthiazol-4-yl)urea], the EC50 was no more than 200 nM.
For `C#Cc1nc(NC(=O)N[C@@H](COC(N)=O)c2ccc(-c3cccnc3N3CC(F)(F)C3)cc2)cs1` [Compound A103, (R)-2-(4-(2-(3,3-Difluoroazetidin-1-yl)pyridin-3-yl)phenyl)-2-(3-(2-ethynyl-thiazol-4-yl)ureido)ethyl carbamate], the EC50 was no more than 200 nM.
The value for `C#Cc1nc(NC(=O)N[C@@H](CO)c2ccc(-c3cccc4ccnc(O)c34)cc2)cs1` [Compound A104, (R)-1-(2-Ethynylthiazol-4-yl)-3-(2-hydroxy-1-(4-(1-hydroxyisoquinolin-8-yl)-phenyl)ethyl)urea] was no more than 200 nM.
For `C#Cc1nc(NC(=O)N[C@@H](COC(N)=O)c2ccc(-c3cccc4ccnc(O)c34)cc2)cs1` [Compound A105, (R)-2-(3-(2-Ethynylthiazol-4-yl)ureido)-2-(4-(1-hydroxyisoquinolin-8-yl)phenyl)-ethyl carbamate], the EC50 was no more than 200 nM.
As to `C#Cc1nc(NC(=O)N[C@@H](CO)c2ccc(-c3cccc4ccnc(O)c34)c(Cl)c2)cs1` [Compound A107, (R)-1-(1-(3-Chloro-4-(1-hydroxyisoquinolin-8-yl)phenyl)-2-hydroxyethyl)-3-(2-ethynylthiazol-4-yl)urea], the EC50 was no more than 200 nM.
Turning to `C#Cc1nnc(NC(=O)N[C@@H](CO)c2ccc(-c3cccc4ccnc(O)c34)cc2)s1` [Compound A108, (R)-1-(5-Ethynyl-1,3,4-thiadiazol-2-yl)-3-(2-hydroxy-1-(4-(1-hydroxyisoquinolin-8-yl)phenyl)ethyl)urea], the EC50 lay within 200 to 1000 nM.
The value for `C#Cc1nc(NC(=O)N[C@@H](CO)c2ccc(-c3cccc4ncnc(O)c34)cc2)cs1` [Compound A109, (R)-1-(2-Ethynylthiazol-4-yl)-3-(2-hydroxy-1-(4-(4-hydroxyquinazolin-5-yl)phenyl)ethyl)urea] was no more than 200 nM.
The value for `C#Cc1nc(NC(=O)N[C@@H](CO)c2ccc(-c3cccc4ncnc(O)c34)c(Cl)c2)cs1` [Compound A110, (R)-1-(1-(3-Chloro-4-(4-hydroxyquinazolin-5-yl)phenyl)-2-hydroxyethyl)-3-(2-ethynylthiazol-4-yl)urea] was no more than 200 nM; that for `C#Cc1nc(NC(=O)N(C)[C@@H](CO)c2ccc(-c3cccc4ncsc34)cc2)cs1` [Compound A111, (R)-1-(1-(4-(Benzo[d]thiazol-7-yl)phenyl)-2-hydroxyethyl)-3-(2-ethynylthiazol-4-yl)-1-methylurea] was no more than 200 nM.
With `C#Cc1nc(N(C)C(=O)N[C@@H](CO)c2ccc(-c3cccc4ncsc34)cc2)cs1` [Compound A112, (R)-3-(1-(4-(Benzo[d]thiazol-7-yl)phenyl)-2-hydroxyethyl)-1-(2-ethynylthiazol-4-yl)-1-methylurea] the figure was no more than 200 nM; with `C#Cc1nc(N(C)C(=O)N(C)[C@@H](CO)c2ccc(-c3cccc4ncsc34)cc2)cs1` [Compound A113, (R)-1-(1-(4-(Benzo[d]thiazol-7-yl)phenyl)-2-hydroxyethyl)-3-(2-ethynylthiazol-4-yl)-1,3-dimethylurea], 200 to 1000 nM; with `C#Cc1nc(NC(=O)N[C@@H](CO)c2ccc(-c3cccc4ncsc34)cn2)cs1` [Compound A114, (R)-1-(1-(5-(Benzo[d]thiazol-7-yl)pyridin-2-yl)-2-hydroxyethyl)-3-(2-ethynyl-thiazol-4-yl)urea], no more than 200 nM.
Turning to `C#Cc1nc(NC(=O)N[C@@H](CS(N)(=O)=O)c2ccc(-c3ccc(F)c4ncsc34)c(Cl)c2)cs1` [Compound A115, (R)-2-(3-Chloro-4-(4-fluorobenzo[d]thiazol-7-yl)phenyl)-2-(3-(2-ethynylthiazol-4-yl)ureido)ethane-1-sulfonamide], the EC50 was no more than 200 nM.
Consider `C#Cc1nc(NC(=O)N[C@@H](COC(=O)[C@@H](N)C(C)C)c2ccc(-c3cccc4ncsc34)cc2)cs1` [Compound A116, (R)-2-(4-(Benzo[d]thiazol-7-yl)phenyl)-2-(3-(2-ethynylthiazol-4-yl)ureido)ethyl L-valinate], for which the EC50 was no more than 200 nM.
